According to the NIST ThermoML archive (doi:10.1021/je0501639):
Several values for one entry are separate records, joined by “and”; a condition that tells them apart may be missing. Equal entries are not always repeated.

Assays:
[1] = 100.8 kPa, Liquid
[2] = refractive index (Na D-line) (dimensionless); details: 101.33 kPa, Liquid, Standard Abbe refractometry
[3] = refractive index (Na D-line) (dimensionless); xn = mol fraction of the nth substance listed; details: 100.8 kPa, Liquid, Standard Abbe refractometry
[4] = xn = mol fraction of the nth substance listed; details: 100.8 kPa, Liquid

CC(C)CC(C)(C)C [2,2,4-trimethylpentane]
Details	mass density, 298.15 K [kg/m3]	mass density, 308.15 K [kg/m3]	mass density, 318.15 K [kg/m3]	refractive index, 298.15 K	refractive index, 308.15 K	refractive index, 318.15 K	viscosity, 298.15 K	viscosity, 308.15 K [mPa·s]	viscosity, 318.15 K [mPa·s]
[1]	687.89	679.55	671.1	–	–	–	0.474 mPa·s and 0.475 mPa·s	0.425	0.38
[2]	–	–	–	1.38898	1.38398	1.37898	–	–	–

CC(C)CC(C)(C)C [2,2,4-trimethylpentane] + CC(C)(C)O
x2 = 0
Details	mass density, 298.15 K [kg/m3]	mass density, 308.15 K [kg/m3]	mass density, 318.15 K [kg/m3]	refractive index, 298.15 K	refractive index, 308.15 K	refractive index, 318.15 K	viscosity, 298.15 K [mPa·s]	viscosity, 308.15 K [mPa·s]	viscosity, 318.15 K [mPa·s]
[3]	–	–	–	1.38898	1.38398	1.37898	–	–	–
[4]	687.89	679.55	671.1	–	–	–	0.475	0.425	0.38

CC(C)(C)O [2-methylpropan-2-ol]
Details	mass density, 298.15 K [kg/m3]	mass density, 308.15 K [kg/m3]	mass density, 318.15 K [kg/m3]	refractive index, 298.15 K	refractive index, 308.15 K	refractive index, 318.15 K
[1]	780.99	770.7	760.05	–	–	–
[2]	–	–	–	1.38481	1.3796	1.37416

[1], Falling or rolling sphere viscometry
Details	viscosity [mPa·s]
298.15 K	4.43
308.15 K	2.622
318.15 K	1.708

CCO [ethanol]
Details	mass density, 298.15 K [kg/m3]	mass density, 308.15 K [kg/m3]	mass density, 318.15 K [kg/m3]	refractive index, 298.15 K	refractive index, 308.15 K	refractive index, 318.15 K
[1]	785.1	776.43	767.61	–	–	–
[2]	–	–	–	1.35932	1.35509	1.351 and 1.35095

[1], Falling or rolling sphere viscometry
Details	viscosity [mPa·s]
298.15 K	1.085
308.15 K	0.906
318.15 K	0.756

CCO [ethanol] + CC(C)(C)O
x1 = 1
Details	mass density, 298.15 K [kg/m3]	mass density, 308.15 K [kg/m3]	mass density, 318.15 K [kg/m3]	refractive index, 298.15 K	refractive index, 308.15 K	refractive index, 318.15 K
[3]	–	–	–	1.35932	1.35509	1.351
[4]	785.1	776.43	767.61	–	–	–

[4], Falling or rolling sphere viscometry, x1 = 1
Details	viscosity [mPa·s]
298.15 K	1.085
308.15 K	0.906
318.15 K	0.756

CCO [ethanol] + CC(C)CC(C)(C)C
x1 = 1
Details	mass density, 298.15 K [kg/m3]	mass density, 308.15 K [kg/m3]	mass density, 318.15 K [kg/m3]	refractive index, 298.15 K	refractive index, 308.15 K	refractive index, 318.15 K	viscosity, 298.15 K [mPa·s]	viscosity, 308.15 K [mPa·s]	viscosity, 318.15 K [mPa·s]
[3]	–	–	–	1.35932	1.35509	1.35095	–	–	–
[4]	785.1	776.43	767.61	–	–	–	1.085	0.906	0.756
